# Earlier results, collected in patent publication EP2361081B1, “MULTI PORTION INTRA-ORAL DOSAGE FORM AND USE THEREOF” (McNeil AB, priority 2008, dated 2010).
# Read-outs that look alike come from different tables or passages of the source. Peptide text beside a SMILES is read from it.
# Columns and labels:
# [1] = pKa value lying in interval 8 - 9,6; taken from Handbook of Chemistry and Physics, 85th edition
# [2] = stated in the context of absorption from the oral cavity
# [3] = in water; footnote b) = low or uncertain value, taken from Handbook of Chemistry and Physics, 85th edition
SMILES,"pKa value (in interval 8 - 9,6) [1]","Solubility in water, g/kg [3]",also measured
NC(=O)C[C@H](N)C(=O)O [Aspargine],"8,73",,
N[C@@H](CS(=O)(=O)O)C(=O)O [Cysteic acid],"8,70",Very soluble,
NC(=O)CC[C@H](N)C(=O)O [Glutamine],"9,00",,Solubility in water [3]: 42 g/kg
N[C@@H](Cc1c[nH]cn1)C(=O)O [Histidine],"9,09","43,5 g/kg",
NCCCC[C@H](N)C(=O)O [Lysine],"9,16",,"Solubility in water, g/kg: Very soluble ^a)b)"
CSCC[C@H](N)C(=O)O [Methionine],"9,08",,Solubility in water [3]: 56 g/kg
N[C@@H](Cc1ccccc1)C(=O)O [Phenylalanine],"9,09","27,9 g/kg",
C[C@@H](O)[C@H](N)C(=O)O [Threonine],"8,96",,
"CN1CCCC1c1cccnc1 (stereo not drawn) [nicotine, 3-(1-methyl-2-pyrrolidinyl)-pyridine]",,,pKa of nicotine [2]: about 7.8

# Continued, in another order:
"pKa value (in interval 8 - 9,6) [1]","Solubility in water, g/kg [3]",SMILES,also measured
"9,58",,N[C@@H](CCC(=O)O)C(=O)O [Glutamic acid],
"9,58",,NCC(=O)O [Glycine],
"9,60","34,2 g/kg",CC[C@H](C)[C@H](N)C(=O)O [Isoleucine],
,"22,0 g/kg",CC(C)C[C@H](N)C(=O)O [Leucine],
"8,10",,NCC(=O)NCC(=O)O [N-Glycylglycine] (H-Gly-Gly-OH),
"9,05",,N[C@@H](CO)C(=O)O [Serine],
"9,52","88,5 g/kg",CC(C)[C@H](N)C(=O)O [Valine],
